Assays:
recombinant BCL-2 = biological target: T1, recombinant BCL-2 (Homo sapiens, UniProt P10415); experiment: In vitro BCL-2 inhibitory activity, TR-FRET assay (BPS Bioscience); type: binding; settings: for inhibition at 10 µM: single dose of 10 µM; for IC50: 5 concentrations 1 nM-10 µM
T1 construct: purchased BPS Bioscience 50272
Procedure: The in vitro enzyme inhibition determination for the synthesized compounds was carried out in BPS Bioscience Corporation, San Diego, CA, USA (www.bpsbioscience.com). […] The assay was performed by TR-FRET technology using a recombinant BCL-2 and a peptide- ligand substrate. The TR-FRET signal from the assay is correlated with the amount of Ligand binding to BCL-2. […] All of the binding reactions were conducted at room temperature. […] The reaction mixture incubated for 180 min prior to reading the TR-FRET signal. For the background, ligand was replaced with assay buffer. Fluorescence signals for both the donor and acceptor dyes were measured using a Tecan Infinite M1000 plate reader. TR-FRET was recorded as the ratio of the fluorescence of the acceptor and the donor dyes (acceptor/donor). Binding experiments were performed in duplicate at each concentration. The TR-FRET data were analyzed using the computer software, Graphpad Prism. In the absence of the compound in wells containing BCL-2 ligand, the TR-FRET signal (Ft) in each data set was defined as 100% activity. In wells without peptide ligand, the TR-FRET signal (Fb) in each data set was defined as 0% activity. The percent activity in the presence of each compound was calculated according to the following equation: % activity = [(F − Fb)/ (Ft − Fb)] × 100, where F = the TR-FRET signal in the presence of the compound. The percent inhibition was calculated according to the following equation: % inhibition = 100—% activity. IC50 determination for target compounds against BCL-2 was calculated. […] The IC50 value was determined by the concentration causing a half-maximal percent activity.

CCRF-CEM = experiment: NCI in vitro anti-proliferative single dose screen; type: cell-based, human; settings: single dose of 10 µM
Procedure: (§1) The national cancer institute (NCI) in vitro anticancer screening is a two-stage process, beginning with the evaluation of the selected compounds 13c and 13d against NCI leukemia cell line at a single dose of 10 µM. The human leukemia cell line was obtained and maintained at the NCI. The output from the single dose screen is reported as a mean graph. The detailed assay protocol is discussed in the supporting material.
(§2) This assay was performed for compounds 13c and 13d by the Developmental Therapeutics Program (DTP) of the National Cancer Institute (NCI), division of cancer treatment and diagnosis, NIH, Bethesda, Maryland, USA (www.dtp.nci.nih.gov). The operation of this screen utilizes leukemia human tumor cell line[37]. The human tumor cell lines of the cancer screening panel were grown in RPMI 1640 medium containing 5% fetal bovine serum and 2 mM L-glutamine.
(§3) Results for the two compounds were reported as a mean graph of the percent growth of the treated cells when compared to the untreated control cells. The results are expressed as cell growth percent for the tested compounds on each of the used NCI cell line panels.
(§4) The human tumor cell lines of the cancer screening panel were grown in RPMI 1640 medium containing 5% fetal bovine serum and 2 mM L-glutamine. For a typical screening experiment, cells are inoculated into 96 well microtiter plates in 100 µL at plating densities ranging from 5,000 to 40,000 cells/well depending on the doubling time of individual cell lines. After cell inoculation, the microtiter plates are incubated at 37° C, 5 % CO2, 95 % air and 100 % relative humidity for 24 hrs prior to addition of experimental drugs. After 24 hrs, two plates of each cell line are fixed in situ with trichloroacetic acid (TCA), to represent a measurement of the cell population for each cell line at the time of drug addition (Tz). Experimental drugs are solubilized in dimethyl sulfoxide at 400-fold the desired final maximum test concentration and stored frozen prior to use. At the time of drug addition, an aliquot of frozen concentrate is thawed and diluted to twice the desired final maximum test concentration with complete medium containing 50 µg/mL gentamicin. Additional four, 10-fold or ½ log serial dilutions are made to provide a total of five drug concentrations plus control. Aliquots of 100 µl of these different drug dilutions are added to the appropriate microtiter wells already containing 100 µl of medium, resulting in the required final drug concentrations.
(§5) Following drug addition, the plates are incubated for an additional 48 hrs at 37°C, 5 % CO2, 95 % air, and 100 % relative humidity. For adherent cells, the assay is terminated by the addition of cold TCA. Cells are fixed in situ by the gentle addition of 50 µl of cold 50 % (w/v) TCA (final concentration, 10 % TCA) and incubated for 60 minutes at 4°C. The supernatant is discarded, and the plates are washed five times with tap water and air dried. Sulforhodamine B (SRB) solution (100 µl) at 0.4 % (w/v) in 1 % acetic acid is added to each well, and plates are incubated for 10 minutes at room temperature. After staining, unbound dye is removed by washing five times with 1 % acetic acid and the plates are air dried. Bound stain is subsequently solubilized with 10 mMtrizma base, and the absorbance is read on an automated plate reader at a wavelength of 515 nm. For suspension cells, the methodology is the same except that the assay is terminated by fixing settled cells at the bottom of the wells by gently adding 50 µl of 80 % TCA (final concentration, 16 % TCA).
(§6) Using the seven absorbance measurements [time zero, (Tz), control growth, (C), and test growth in the presence of drug at the five concentration levels (Ti)], the percentage growth is calculated at each of the drug concentrations levels. Percentage growth inhibition is calculated as: […]

HL-60(TB) = experiment: NCI in vitro anti-proliferative single dose screen; type: cell-based, human; settings: single dose of 10 µM
Procedure: as §1, §2, §3, §4, §5, §6

K-562 = experiment: NCI in vitro anti-proliferative single dose screen; type: cell-based, human; settings: K-562, single dose of 10 µM
Procedure: as §1, §2, §3, §4, §5, §6

MOLT-4 = experiment: NCI in vitro anti-proliferative single dose screen; type: cell-based, human; settings: MOLT-4, single dose of 10 µM
Procedure: as §1, §2, §3, §4, §5, §6

RPMI-8226 = experiment: NCI in vitro anti-proliferative single dose screen; type: cell-based, human; settings: RPMI-8226, single dose of 10 µM
Procedure: as §1, §2, §3, §4, §5, §6

SR = experiment: NCI in vitro anti-proliferative single dose screen; type: cell-based, human; settings: single dose of 10 µM; for Cell growth percent: SR
Procedure: as §1, §2, §3, §4, §5, §6

NCI leukemia cell line = experiment: NCI in vitro anti-proliferative screen, leukemia panel as a whole; type: cell-based, human; settings: single dose of 10 µM
Procedure: as §1
as §2, with “The human tumor cell lines of the cancer screening panel were grown in RPMI 1640 medium containing 5% fetal bovine serum and 2 mM L-glutamine.” left out
Results for the two compounds were reported as a mean graph of the percent growth of the treated cells when compared to the untreated control cells. The results are expressed as cell growth percent for the tested compounds on each of the used NCI cell line panels. […]
Following drug addition, the plates are incubated for an additional 48 hrs at 37°C, 5 % CO2, 95 % air, and 100 % relative humidity. […] Bound stain is subsequently solubilized with 10 mMtrizma base, and the absorbance is read on an automated plate reader at a wavelength of 515 nm. […]

BCL-2 = settings: cited from earlier work

T1 sequence (P10415 whole entry): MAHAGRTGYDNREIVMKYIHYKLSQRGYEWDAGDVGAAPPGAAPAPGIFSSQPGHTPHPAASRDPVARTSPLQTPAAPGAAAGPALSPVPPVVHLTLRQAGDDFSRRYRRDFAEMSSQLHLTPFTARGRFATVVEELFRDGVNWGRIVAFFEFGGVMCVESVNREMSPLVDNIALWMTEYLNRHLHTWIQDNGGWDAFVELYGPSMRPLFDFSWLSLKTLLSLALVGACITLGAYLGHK

Structure (SMILES): O=C(Nc1ccc(OCc2cccc(Cl)c2)cc1)c1ccc2nc(NC(=O)c3ccc(NCCc4ccccc4)c([N+](=O)[O-])c3)sc2c1 [13a, N-(4-((3-Chlorobenzyl)oxy)phenyl)-2-(3-nitro-4-(phenethylamino)benzamido) benzo[d]thiazole-6-carboxamide]
- inhibition at 10 µM (recombinant BCL-2): 35%
- melting point: 260 to 262 °C

Structure (SMILES): O=C(Nc1ccc(OCc2ccc(Br)cc2)cc1)c1ccc2nc(NC(=O)c3ccc(NCCc4ccccc4)c([N+](=O)[O-])c3)sc2c1 [13b, N-(4-((4-Bromobenzyl)oxy)phenyl)-2-(3-nitro-4-(phenethylamino)benzamido)-benzo[d]thiazole-6-carboxamide]
- IC50 (recombinant BCL-2): 1090 nM
- inhibition at 10 µM (recombinant BCL-2): > 60%
- melting point: 260 to 262 °C

Structure (SMILES): Cc1ccc(COc2ccc(NC(=O)c3ccc4nc(NC(=O)c5ccc(NCCc6ccccc6)c([N+](=O)[O-])c5)sc4c3)cc2)cc1 [13c, N-(4-((4-Methylbenzyl)oxy)phenyl)-2-(3-nitro-4-(phenethylamino)benzamido)benzo-[d]thiazole-6-carboxamide]
- IC50 (recombinant BCL-2): 471 nM
- inhibition at 10 µM (recombinant BCL-2): 84%
- Cell growth percent (CCRF-CEM): 93.91%
- Cell growth percent (HL-60(TB)): 75.74%
- Cell growth percent (K-562): 87.23%
- Cell growth percent (MOLT-4): 94.74%
- Cell growth percent (RPMI-8226): 87.5%
- Cell growth percent (SR): 82.5%
- inhibition against the used leukemia cell line (in words) (NCI leukemia cell line): poor inhibition
- melting point: 138 to 140 °C

Structure (SMILES): O=C(Nc1ccc(OCc2ccc(C(F)(F)F)cc2)cc1)c1ccc2nc(NC(=O)c3ccc(NCCc4ccccc4)c([N+](=O)[O-])c3)sc2c1 [13d, N-(4-((4-Trifluoromethylbenzyl)oxy)phenyl)-2-(3-nitro-4-(phenethylamino)benzamido)-benzo[d]thiazole-6-carboxamide]
- IC50 (recombinant BCL-2): 363 nM
- Cell growth percent (CCRF-CEM): 68.2%
- Cell growth percent (HL-60(TB)): 96.87%
- Cell growth percent (K-562): 67.92%
- Cell growth percent (MOLT-4): 74.37%
- Cell growth percent (RPMI-8226): 69.86%
- inhibition at 10 µM (SR; Homo sapiens, leukemic SR cell lines, read-out: growth inhibition): 62.9%
- Cell growth percent (SR): 37.13%
- melting point: 218 to 220 °C

Structure (SMILES): O=C(Nc1ccc(Oc2ccc(Cl)c(F)c2)cc1)c1ccc2nc(NC(=O)c3ccc(NCCc4ccccc4)c([N+](=O)[O-])c3)sc2c1 [14a, N-(4-(4-Chloro-3-fluorophenoxy)phenyl)-2-(3-nitro-4-(phenethylamino)benzamido)-benzo[d]thiazole-6-carboxamide]
- inhibition at 10 µM (recombinant BCL-2): 20%
- melting point: 196 to 198 °C

Structure (SMILES): O=C(Nc1ccc(Oc2ccc(Br)cc2)cc1)c1ccc2nc(NC(=O)c3ccc(NCCc4ccccc4)c([N+](=O)[O-])c3)sc2c1 [14b]
- inhibition at 10 µM (recombinant BCL-2): 47%
- melting point: 212 to 214 °C

Structure (SMILES): O=C(Nc1ccccc1)Nc1ccc2nc(NS(=O)(=O)c3ccc4ccccc4c3)sc2c1 [17a, N-(6-(3-Phenylureido)benzo[d]thiazol-2-yl)naphthalene-2-sulfonamide]
- inhibition at 10 µM (recombinant BCL-2): 0%
- melting point: ≥ 300 °C

Structure (SMILES): O=C(Nc1cccc(Cl)c1)Nc1ccc2nc(NS(=O)(=O)c3ccc4ccccc4c3)sc2c1 [17b, N-(6-(3-(3-Chlorophenyl)ureido)benzo[d]thiazol-2-yl)naphthalene-2-sulfonamide]
- inhibition at 10 µM (recombinant BCL-2): 7%
- melting point: ≥ 300 °C

Structure (SMILES): O=C(Nc1cccc(Br)c1)Nc1ccc2nc(NS(=O)(=O)c3ccc4ccccc4c3)sc2c1 [17c, N-(6-(3-(3-Bromophenyl)ureido)benzo[d]thiazol-2-yl)naphthalene-2-sulfonamide]
- inhibition at 10 µM (recombinant BCL-2): 10%
- melting point: ≥ 300 °C

Structure (SMILES): COc1cccc(NC(=O)Nc2ccc3nc(NS(=O)(=O)c4ccc5ccccc5c4)sc3c2)c1 [17d, N-(6-(3-(3-Methoxyphenyl)ureido)benzo[d]thiazol-2-yl)naphthalene-2-sulfonamide]
- inhibition at 10 µM (recombinant BCL-2): 7%
- melting point: ≥ 300 °C

Structure (SMILES): Cc1cccc(NC(=O)Nc2ccc3nc(NS(=O)(=O)c4ccc5ccccc5c4)sc3c2)c1 [17e, N-(6-(3-(m-Tolyl)ureido)benzo[d]thiazol-2-yl)naphthalene-2-sulfonamide]
- inhibition at 10 µM (recombinant BCL-2): 0%
- melting point: ≥ 300 °C

Structure (SMILES): O=C(Nc1ccc(Br)cc1)Nc1ccc2nc(NS(=O)(=O)c3ccc4ccccc4c3)sc2c1 [17f, N-(6-(3-(4-Bromophenyl)ureido)benzo[d]thiazol-2-yl)naphthalene-2-sulfonamide]
- IC50 (recombinant BCL-2): 2290 nM
- inhibition at 10 µM (recombinant BCL-2): > 60%
- melting point: ≥ 300 °C

Structure (SMILES): O=C(Nc1ccc(Cl)c(C(F)(F)F)c1)Nc1ccc2nc(NS(=O)(=O)c3ccc4ccccc4c3)sc2c1 [17g, N-(6-(3-(4-Chloro-3-(trifluoromethyl)phenyl)ureido)benzo[d]thiazol-2-yl)naphthalene-2-sulfonamide]
- inhibition at 10 µM (recombinant BCL-2): 18%
- melting point: ≥ 300 °C

Structure (SMILES): O=C(Nc1ccc(Cl)c(Cl)c1)Nc1ccc2nc(NS(=O)(=O)c3ccc4ccccc4c3)sc2c1 [17h, N-(6-(3-(3,4-Dichlorophenyl)ureido)benzo[d]thiazol-2-yl)naphthalene-2-sulfonamide]
- inhibition at 10 µM (recombinant BCL-2): 0%
- melting point: 290 to 292 °C

Structure (SMILES): Cc1cc(Cl)ccc1NC(=O)Nc1ccc2nc(NS(=O)(=O)c3ccc4ccccc4c3)sc2c1 [17i, N-(6-(3-(4-Chloro-2-methylphenyl)ureido)benzo[d]thiazol-2-yl)naphthalene-2-sulfonamide]
- inhibition at 10 µM (recombinant BCL-2): 14%
- melting point: 280 to 282 °C

Structure (SMILES): Cc1ccc(NC(=O)Nc2ccc3nc(NS(=O)(=O)c4ccc5ccccc5c4)sc3c2)cc1Cl [17j, N-(6-(3-(3-Chloro-4-methylphenyl)ureido)benzo[d]thiazol-2-yl)naphthalene-2-sulfonamide]
- inhibition at 10 µM (recombinant BCL-2): 9%
- melting point: ≥ 300 °C

Structure (SMILES): CCCCc1c(-c2ccc(C(=O)NS(=O)(=O)c3ccc4ccccc4c3)cc2C(=O)N2CCc3ccccc3C2)c(CO)nn1-c1ccc(Oc2cccc(Cl)c2)cc1 [Compound 1]
- melting point: 42 to 44 °C
- IC50 (BCL-2): 6 nM
